Measurements from patent US11643474B2, “Peptide fusion protein” (KAGOSHIMA UNIVERSITY, priority 2018, dated 2023).

Columns and labels:
human IgG = experiment: Affinity measurement to IgG by surface plasmon resonance (BIAcore T200); format: binding; conditions: ligand immobilized onto sensor chip, HBS-EP buffer pH 7.4
Procedure: The affinity analysis was performed by the following method. First, a solution containing equal amounts of 0.4 M EDC (1-ethyl-3-(3-dimethylaminopropyl)-carbodiimide) and 0.1 M sulfo-NHS (sulfo-N-hydroxysuccinimide)) was injected at a flow rate of […] onto a CMS sensor chip set in BIAcore T200 (GE healthcare), thereby activating the sensor chip. Then, under the condition of pH 5.5 (10 mM Na acetate), the purified protein (sfGFP-C-1Opt1) described above was immobilized onto the sensor chip. For the measurement, HBS-EP buffer (10 mM HEPES, 150 mM NaCl, 0.005% Tween 20, 3 mM EDTA, pH 7.4) was used, and the binding reaction was monitored by injecting 6.25, 12.5, 25, 50, 100, 200, and 400 nM human IgG for 180 seconds at a flow rate of […]. For measuring the dissociation reaction, only the buffer was injected for 600 seconds. The analysis of interaction parameters was performed using BIA evalution T100 software.
As Comparative Example 1, a scaffold protein (sfGFP having a His tag; DNA sequence: SEQ ID NO: 40, amino acid sequence: SEQ ID NO: 41) to which an IgG-binding peptide was not fused was expressed and purified in the same manner as in Example 1, and affinity was measured.
Proteins including two IgG-binding peptides, each consisting of the amino acid sequences represented by SEQ ID NO: 45, SEQ ID NO: 47, and SEQ ID NO: 49 (sfGFP-N C-2Opt1GS12 (DNA sequence: SEQ ID NO: 44), sfGFP-173 C-2Opt1 GS12 (DNA sequence: SEQ ID NO: 46), and sfGFP-173 C-2Opt1GS13 (DNA sequence: SEQ ID NO: 48)) were expressed and purified by the same method as in Example 1, and the affinity was measured.
As Comparative Example 2, the affinity measurement of the peptide (amino acid sequence: SEQ ID NO: 18) prepared by chemical synthesis was carried out in the same manner as in Example 1.

[1] = system: human serum-derived γ-globulin; experiment: Dynamic binding capacity (DBC) measurement on ligand-immobilized NHS-activated prepack column; conditions: 1 mL column; 1 mg/mL γ-globulin at 1 mL/min; 10% breakthrough at 280 nm; equimolar ligand (7.3 mg protein or 0.5 mg peptide)
Procedure: To examine whether the IgG-binding peptide divalent fusion protein can be used as an affinity ligand for human antibody purification, the protein prepared in Example 2 (sfGFP-173 C-2Opt1 GS12) was immobilized on an NHS-activated prepack column (GE Healthcare), and the adsorption performance was evaluated. The protein-immobilized column was prepared by the following method. A syringe was used to feed the solution.
5 mL of 1 mM hydrochloric acid was fed to a NHS-activated prepack column with a volume of 1 mL to remove the isopropanol solution in the column. Then, 1 mL of a coupling solution (200 mM carbonate buffer, 500 mM sodium chloride, pH 8.3) containing 7.3 mg of an IgG-binding peptide fusion protein was fed and immobilized at room temperature for 1 hour. The unreacted NHS ester was blocked by adding tris-hydroxymethylaminomethane. Finally, 5 mL of an adsorption solution (20 mM phosphate buffer, 150 mM sodium chloride, pH 7.4) was fed and used for DBC measurement.
The DBC measurement was performed using a liquid chromatography instrument AKTAexplore (GE Healthcare). […] The DBC was determined from the amount of the sample fed until the value of an absorbance at 280 nm excluding the non-adsorbed component reached 10% of the absorbance of the entire sample. […]

- Kd (human IgG; human IgG as analyte): 14 nM
- DBC (dynamic binding capacity) [1]: 6.9 mg/mL-column
Sequence: GPDCAYHRGELVWCTFH [Comparative Example 2, reference compound]
- kon (human IgG; 6.25-400 nM human IgG injected 180 s): 330000 M⁻¹ s⁻¹
- koff (human IgG; buffer only injected 600 s for dissociation): 0.0048 s⁻¹
